The source of these data is ChEMBL document CHEMBL4350984, “Natural products as multidrug resistance modulators in cancer” (Eur J Med Chem, 2019).

Test [1] is filed under the species Homo sapiens. The experiment in a line: Inhibition of BCRP-mediated mitoxantrone efflux in human NCI-H460/MX20 cells assessed as mitoxantrone accumulation at 20 uM after 15 mins by Hoechst 33342 staining based flow cytometry analysis relative to control. It is filed as cell-based. Also noted: scale not given: the % may be the effect or the level left.
The species entered for test [2] is Homo sapiens. Put plainly: Inhibition of BCRP-mediated mitoxantrone efflux in human NCI-H460/MX20 cells assessed as mitoxantrone accumulation at 10 uM after 15 mins by Hoechst 33342 staining based flow cytometry analysis relative to control. It is filed as cell-based. Also noted: scale not given: the % may be the effect or the level left.
Test [3] can be described thus: Cytotoxicity against human KBv200 cells assessed as reduction in cell viability. It is filed as functional, cell-based.
A further test is described as follows: cells. The following applies: Homo sapiens, 72 h.

Description for cells: Downregulation of ABCB1 gene expression in human EPG85-257RDB cells after 72 hrs by RT-PCR analysis

For `COC(=O)c1c(-c2ccc(O)cc2)c(-c2ccc(O)cc2)cn1CC(=O)c1ccc(OC)cc1`, in the test filed under Homo sapiens [1], the Activity was determined as 94.5%. Consider `COc1ccc2c3c([nH]c2c1)[C@H](C=C(C)C)N1C(=O)[C@@H]2CCCN2C(=O)[C@@H]1C3`, for which, in the test listed under Homo sapiens [2], the Activity was found to be 100%.

Take `COc1ccc2cc1Oc1ccc(cc1)C[C@H]1c3cc(c(OC)cc3CCN1C)Oc1c(OC)c(OC)cc3c1[C@H](C2)N(C)CC3` [FANCHININ]: in test [3], the IC50 is 2000 nM. In the test “cells”, `O=c1c(O)c(-c2ccc(O)c(O)c2)oc2cc(O)cc(O)c12` [QUERCETIN] came in with a half-maximal inhibitory concentration (IC50) of 12 µM.
